The series concerns CCRIS mutagenicity, Ames/micronucleus/aberration tests. Briefly: CCRIS mutagenicity studies.
The mark [1] stands for this setting: Test System: AMES SALMONELLA TYPHIMURIUM, Strain/Indicator: TA100, Metabolic Activation: NONE, Method: STANDARD PLATE.
The mark [2] stands for this setting: Test System: AMES SALMONELLA TYPHIMURIUM, Strain/Indicator: TA100, Metabolic Activation: NONE, Method: PREINCUBATION
Where [3] appears, read: Test System: AMES SALMONELLA TYPHIMURIUM, Strain/Indicator: TA98, Metabolic Activation: NONE, Method: STANDARD PLATE.
Where [4] appears, read: Test System: AMES SALMONELLA TYPHIMURIUM, Strain/Indicator: TA98, Metabolic Activation: RAT, LIVER, S-9, AROCLOR 1254, Method: STANDARD PLATE.
The mark [5] stands for this setting: Test System: AMES SALMONELLA TYPHIMURIUM, Strain/Indicator: TA100, Metabolic Activation: RAT, LIVER, S-9, AROCLOR 1254, Method: STANDARD PLATE.
The mark [6] stands for this setting: Test System: AMES SALMONELLA TYPHIMURIUM, Strain/Indicator: TA1535, Metabolic Activation: NONE, Method: STANDARD PLATE.
The mark [7] stands for this setting: Test System: AMES SALMONELLA TYPHIMURIUM, Strain/Indicator: TA1535, Metabolic Activation: RAT, LIVER, S-9, AROCLOR 1254, Method: STANDARD PLATE.

Molecules are shown by their SMILES. Activity calls are given as the source filed them. The rule behind the calls is not given here.

Consider `CC(=O)N(O)c1ccc(Oc2ccc(Cl)cc2)cc1`, for which the mutagenic call runs as follows: (Test System: AMES SALMONELLA TYPHIMURIUM, Strain/Indicator: TA100, Metabolic Activation: GUINEA PIG, LIVER, MICROSOMAL FRACTION, PCB) “active; positive”; (Test System: AMES SALMONELLA TYPHIMURIUM, Strain/Indicator: TA100, Metabolic Activation: GUINEA PIG, LIVER, S-9, PCB) “active; positive”; (Test System: AMES SALMONELLA TYPHIMURIUM, Strain/Indicator: TA100, Metabolic Activation: GUINEA PIG, LIVER, S-105, PCB) “active; positive”; under setting [1], “inactive; negative”; (Test System: AMES SALMONELLA TYPHIMURIUM, Strain/Indicator: TA100, Metabolic Activation: RAT, LIVER, S-9, KANECLOR 500, Method: STANDARD PLATE) “active; positive”.
As to `Cc1cc(=O)oc2cc3c(cc12)C1(C)OOC1(C)O3` (stereo not drawn), under setting [2], the mutagenic call is “active; positive”.
Regarding `O=NN(CCc1c[nH]c2ccccc12)C1OC[C@@H](O)[C@H](O)[C@H]1O` (stereo partly drawn), for the setting “Test System: AMES SALMONELLA TYPHIMURIUM, Strain/Indicator: TA100, Metabolic Activation: NONE, Method: LIQUID INCUBATION”, the mutagenic call is “active; positive”.
In the case of `CN(C)c1ccc(C(=C2C=CC(=[N+](C)C)C=C2)c2ccc(N(C)C)cc2)cc1`, the mutagenic call (Test System: AMES SALMONELLA TYPHIMURIUM, Strain/Indicator: TA97, Metabolic Activation: NONE, Method: STANDARD PLATE) is “inactive; negative”; the mutagenic call under setting [3] was “inactive; negative”; the mutagenic call under setting [4] was “inactive; negative”; the mutagenic call under setting [1] was “inactive; negative”; the mutagenic call under setting [5] was “inactive; negative”; the mutagenic call (Test System: AMES SALMONELLA TYPHIMURIUM, Strain/Indicator: TA104, Metabolic Activation: NONE, Method: STANDARD PLATE) is “inactive; negative”. Also, the mutagenic call by setting is: under setting [6], “inactive; negative”; under setting [7], “inactive; negative”; (Test System: CHINESE HAMSTER OVARY, Strain/Indicator: CHO-AS52 (GPT)/6-THIOGUANINE, Metabolic Activation: RAT, LIVER, S-9, AROCLOR 1254) “inactive; negative”; (Test System: CHINESE HAMSTER OVARY, Strain/Indicator: CHO-K1-BH4 (HPRT)/6-THIOGUANINE, Metabolic Activation: NONE) “inactive; negative”; (Test System: CHINESE HAMSTER OVARY, Strain/Indicator: CHO-K1-BH4 (HPRT)/6-THIOGUANINE, Metabolic Activation: RAT, LIVER, S-9, AROCLOR 1254) “inactive; negative”; (Test System: E. COLI, Strain/Indicator: DG1669, Metabolic Activation: NONE, Method: STANDARD PLATE) “active; positive”. Under “Test System: E. COLI, Strain/Indicator: DG1669, Metabolic Activation: RAT, LIVER, S-9, AROCLOR 1254, Method: STANDARD PLATE”, the mutagenic call is “active; positive”.
As to `C=C(C)C(=O)OCC(CC)(COC(=O)C(=C)C)COC(=O)C(=C)C`, the mutagenic call (Test System: AMES SALMONELLA TYPHIMURIUM, Strain/Indicator: TA98, Metabolic Activation: HAMSTER, LIVER, S-9, AROCLOR 1254, Method: STANDARD PLATE) was “inactive; negative”; the mutagenic call under setting [3] was “inactive; negative”; the mutagenic call under setting [4] was “inactive; negative”; the mutagenic call (Test System: AMES SALMONELLA TYPHIMURIUM, Strain/Indicator: TA100, Metabolic Activation: HAMSTER, LIVER, S-9, AROCLOR 1254, Method: STANDARD PLATE) was “inactive; negative”; the mutagenic call under setting [1] was “inactive; negative”; the mutagenic call under setting [5] was “inactive; negative”. Besides, the mutagenic call (Test System: AMES SALMONELLA TYPHIMURIUM, Strain/Indicator: TA1535, Metabolic Activation: HAMSTER, LIVER, S-9, AROCLOR 1254 (5-10%), Method: STANDARD PLATE) was “inactive; negative”; the mutagenic call (Test System: AMES SALMONELLA TYPHIMURIUM, Strain/Indicator: TA1535, Metabolic Activation: HAMSTER, LIVER, S-9, AROCLOR 1254 (15-20%), Method: STANDARD PLATE) is “active; positive”; the mutagenic call (Test System: AMES SALMONELLA TYPHIMURIUM, Strain/Indicator: TA1535, Metabolic Activation: HAMSTER, LIVER, S-9, AROCLOR 1254, Method: STANDARD PLATE) is “active; positive”; the mutagenic call under setting [6] was “inactive; negative”; the mutagenic call under setting [7] was “inactive; negative”; the mutagenic call (Test System: AMES SALMONELLA TYPHIMURIUM, Strain/Indicator: TA1537, Metabolic Activation: HAMSTER, LIVER, S-9, AROCLOR 1254, Method: STANDARD PLATE) was “inactive; negative”. The mutagenic call by setting is: (Test System: AMES SALMONELLA TYPHIMURIUM, Strain/Indicator: TA1537, Metabolic Activation: NONE, Method: STANDARD PLATE) “inactive; negative”; (Test System: AMES SALMONELLA TYPHIMURIUM, Strain/Indicator: TA1537, Metabolic Activation: RAT, LIVER, S-9, AROCLOR 1254, Method: STANDARD PLATE) “inactive; negative”.
As for `CC(=O)O[C@H]1[C@H]2O[C@H]2C2=CC(=O)[C@]3(C[C@]2(C)[C@H]1C)O[C@]3(C)C=O`, the mutagenic call (Test System: AMES SALMONELLA TYPHIMURIUM, Strain/Indicator: TA98, Metabolic Activation: NONE, Method: PREINCUBATION) is “active; positive”; the mutagenic call (Test System: AMES SALMONELLA TYPHIMURIUM, Strain/Indicator: TA98, Metabolic Activation: RAT, LIVER, S-9, PHENOBARBITAL AND BETA-NAPHTHOFLAVONE, Method: PREINCUBATION) is “inactive; negative”; the mutagenic call under setting [2] was “inactive; negative”; the mutagenic call (Test System: AMES SALMONELLA TYPHIMURIUM, Strain/Indicator: TA100, Metabolic Activation: RAT, LIVER, MICROSOMES, PHENOBARBITAL, Method: STANDARD PLATE) was “active; positive”; the mutagenic call (Test System: AMES SALMONELLA TYPHIMURIUM, Strain/Indicator: TA100, Metabolic Activation: RAT, LIVER, S-9, PHENOBARBITAL AND BETA-NAPHTHOFLAVONE, Method: PREINCUBATION) was “inactive; negative”; the mutagenic call (Test System: AMES SALMONELLA TYPHIMURIUM, Strain/Indicator: TA100, Metabolic Activation: RAT, LIVER, S-9, PHENOBARBITAL, Method: PREINCUBATION) was “inactive; negative”. Also, the mutagenic call was “inactive; negative” (Test System: AMES SALMONELLA TYPHIMURIUM, Strain/Indicator: TA1535, Metabolic Activation: NONE, Method: PREINCUBATION); “inactive; negative” (Test System: AMES SALMONELLA TYPHIMURIUM, Strain/Indicator: TA1535, Metabolic Activation: RAT, LIVER, S-9, PHENOBARBITAL AND BETA-NAPHTHOFLAVONE, Method: PREINCUBATION); “inactive; negative” (Test System: AMES SALMONELLA TYPHIMURIUM, Strain/Indicator: TA1537, Metabolic Activation: NONE, Method: PREINCUBATION); “inactive; negative” (Test System: AMES SALMONELLA TYPHIMURIUM, Strain/Indicator: TA1537, Metabolic Activation: RAT, LIVER, S-9, PHENOBARBITAL AND BETA-NAPHTHOFLAVONE, Method: PREINCUBATION); “inactive; negative” (Test System: AMES SALMONELLA TYPHIMURIUM, Strain/Indicator: TA1538, Metabolic Activation: NONE, Method: PREINCUBATION); “inactive; negative” (Test System: AMES SALMONELLA TYPHIMURIUM, Strain/Indicator: TA1538, Metabolic Activation: RAT, LIVER, S-9, PHENOBARBITAL AND BETA-NAPHTHOFLAVONE, Method: PREINCUBATION).
Consider `Oc1ccccc1-c1nc2ccccc2o1`, for which the mutagenic call reads like this: under setting [3], “inactive; negative”; (Test System: AMES SALMONELLA TYPHIMURIUM, Strain/Indicator: TA98, Metabolic Activation: S-9, Method: STANDARD PLATE) “inactive; negative”.

Values taken from PubChem BioAssay AID1259407 (Chemical Carcinogenesis Research Information System (CCRIS), 2018).
